Experimental data published in patent US7511065B2, “Mixed lineage kinase modulators” (Eli Lilly and Company, priority 2002, dated 2009).
Where a name gives a salt, the structure may show the parent alone.

Biological target: T1, MLK-7 (Homo sapiens, UniProt Q9NYL2)
T1 construct: GST; His tag; made in house; host or cells: Sf9 insect cells (baculovirus, pVL1392)
Assay: In vitro assay of purified MLK-7 kinase activity (33P transfer from ATP to myelin basic protein)
Assay type: biochemical
Conditions: recombinant GST-tagged MLK-7 at 1 nm, 30 uM ATP, 5 uM MBP substrate, 2 hours room temperature; read-out: MLK7 IC50
Outline: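 GST/His-tagged MLK-7 from Sf9 (baculovirus), 1 nM, with 5 uM MBP, 30 uM ATP plus 33P, 5 mM MgCl2, 2 mM DTT, 4% DMSO in 44 mM HEPES pH 7.4; 2 h at room temperature, stopped with phosphoric acid. Filter-bound 33P counted; IC50 for reduced phosphate transfer, Ki via Cheng-Prusoff.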

T1 sequence (Q9NYL2 1-455 isoform Q9NYL2-2): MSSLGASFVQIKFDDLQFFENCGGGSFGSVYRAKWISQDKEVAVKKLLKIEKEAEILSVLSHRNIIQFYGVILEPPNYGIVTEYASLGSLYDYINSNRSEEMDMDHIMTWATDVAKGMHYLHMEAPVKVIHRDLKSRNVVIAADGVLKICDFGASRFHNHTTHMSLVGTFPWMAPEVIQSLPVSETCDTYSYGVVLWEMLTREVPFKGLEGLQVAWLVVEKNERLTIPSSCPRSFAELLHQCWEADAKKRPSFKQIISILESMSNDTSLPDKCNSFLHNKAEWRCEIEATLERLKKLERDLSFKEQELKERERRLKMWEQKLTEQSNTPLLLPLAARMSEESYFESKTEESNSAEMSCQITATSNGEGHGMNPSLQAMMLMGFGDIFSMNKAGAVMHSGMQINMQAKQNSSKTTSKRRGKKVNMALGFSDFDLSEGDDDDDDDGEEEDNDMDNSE

Row | SMILES | IC50 [µM]
1 | NC(=O)COc1ccc(-c2ccc3c(-c4c(-c5ccccn5)nn5c4CCC5)ccnc3c2)cc1 [Example 117, 2-{4-[4-(2-Pyridin-2-yl-5,6-dihydro-4H-pyrrolo[1,2-b]pyrazol-3-yl)quinolin-7-yl]phenoxy}acetamide Trifluoroacetic Acid] | ≤ 0.1
2 | COCCOc1ccc(-c2ccc3c(-c4c(-c5ccccn5)nn5c4CCC5)ccnc3c2)cc1 [Example 118] | ≤ 0.1
3 | FCCOc1ccc(-c2ccc3c(-c4c(-c5ccccn5)nn5c4CCC5)ccnc3c2)cc1 [Example 119, 7-[4-(2-Fluoroethoxy)phenyl]-4-(2-pyridin-2-yl-5,6-dihydro-4H-pyrrolo[1,2-b]pyrazol-3-yl)quinoline Trifluoroacetic Acid] | ≤ 0.1
4 | FC(F)(F)COc1ccc(-c2ccc3c(-c4c(-c5ccccn5)nn5c4CCC5)ccnc3c2)cc1 [Example 120, 4-(2-Pyridin-2-yl-5,6-dihydro-4H-pyrrolo[1,2-b]pyrazol-3-yl)-7-[4-(2,2,2-trifluoroethoxy)phenyl)quinoline Trifluoroacetic Acid] | ≤ 0.1
5 | CC(C)(C)OC(=O)NCCNC(=O)c1ccc(-c2ccc3c(-c4c(-c5ccccn5)nn5c4CCC5)ccnc3c2)cc1 [Example 121, (2-{4-[4-(2-Pyridin-2-yl-5,6-dihydro-4H-pyrrolo[1,2-b]pyrazol-3-yl)-quinolin-7-yl]-benzoylamino}-ethyl)-carbamic Acid tert-Butyl Ester] | ≤ 0.1
6 | O=C(c1ccc(-c2ccc3c(-c4c(-c5ccccn5)nn5c4CCC5)ccnc3c2)cc1)N1CCCCC1 [Example 122, Piperidin-1-yl-{4-[4-(2-pyridin-2-yl-5,6-dihydro-4H-pyrrolo[1,2-b]pyrazol-3-yl)-quinolin-7-yl]-phenyl}-methanone] | ≤ 0.1
7 | O=C(c1ccc(-c2ccc3c(-c4c(-c5ccccn5)nn5c4CCC5)ccnc3c2)cc1)N1CCSCC1 [Example 123, {4-[4-(2-Pyridin-2-yl-5,6-dihydro-4H-pyrrolo[1,2-b]pyrazol-3-yl)-quinolin-7-yl]-phenyl}-thiomorpholin-4-yl-methanone] | ≤ 0.1
8 | O=C(c1ccc(-c2ccc3c(-c4c(-c5ccccn5)nn5c4CCC5)ccnc3c2)cc1)N1CCOCC1 [Example 124, Morpholin-4-yl-{4-[4-(2-pyridin-2-yl-5,6-dihydro-4H-pyrrolo[1,2-b]pyrazol-3-yl)-quinolin-7-yl]-phenyl}-methanone] | ≤ 0.1
9 | NC(=O)CNC(=O)c1ccc(-c2ccc3c(-c4c(-c5ccccn5)nn5c4CCC5)ccnc3c2)cc1 [Example 125, N-Carbamoylmethyl-4-[4-(2-pyridin-2-yl-5,6-dihydro-4H-pyrrolo[1,2-b]pyrazol-3-yl)-quinolin-7-yl]-benzamide] | ≤ 0.1
10 | CC(C)NCCNC(=O)c1ccc(-c2ccc3c(-c4c(-c5ccccn5)nn5c4CCC5)ccnc3c2)cc1 [Example 126, N-(2-Isopropylamino-ethyl)-4-[4-(2-pyridin-2-yl-5,6-dihydro-4H-pyrrolo[1,2-b]pyrazol-3-yl)-quinolin-7-yl]-benzamide] | ≤ 0.1
11 | CCOC(=O)CCNC(=O)c1ccc(-c2ccc3c(-c4c(-c5ccccn5)nn5c4CCC5)ccnc3c2)cc1 [Example 128, 3-{4-[4-(2-Pyridin-2-yl-5,6-dihydro-4H-pyrrolo[1,2-b]pyrazol-3-yl)-quinolin-7-yl]-benzoylamino}-propionic Acid Ethyl Ester] | ≤ 0.1
12 | CC(C)(C)OC(=O)N1CCCC(NC(=O)c2ccc(-c3ccc4c(-c5c(-c6ccccn6)nn6c5CCC6)ccnc4c3)cc2)C1 (stereo not drawn) [Example 130, 3-{4-[4-(2-Pyridin-2-yl-5,6-dihydro-4H-pyrrolo[1,2-b]pyrazol-3-yl)-quinolin-7-yl]-benzoylamino}-piperidine-1-carboxylic Acid tert-Butyl Ester] | ≤ 0.1
13 | CC(C)(C)OC(=O)NCCCC[C@H](NC(=O)c1ccc(-c2ccc3c(-c4c(-c5ccccn5)nn5c4CCC5)ccnc3c2)cc1)C(=O)OC(C)(C)C [Example 131, 6-tert-Butoxycarbonylamino-2(S)-{4-[4-(2-pyridin-2-yl-5,6-dihydro-4H-pyrrolo[1,2-b]pyrazol-3-yl)-quinolin-7-yl]-benzoylamino}-hexanoic acid tert-butyl ester] | ≤ 1
14 | O=C(NCCN1CCOCC1)c1ccc(-c2ccc3c(-c4c(-c5ccccn5)nn5c4CCC5)ccnc3c2)cc1 [Example 132, N-(2-Morpholin-4-yl-ethyl)-4-[4-(2-pyridin-2-yl-5,6-dihydro-4H-pyrrolo[1,2-b]pyrazol-3-yl)-quinolin-7-yl]-benzamide] | ≤ 0.1
15 | O=C(c1ccc(-c2ccc3c(-c4c(-c5ccccn5)nn5c4CCC5)ccnc3c2)cc1)N1CCS(=O)(=O)CC1 [Example 133, (1,1-Dioxo-1λ^6-thiomorpholin-4-yl)-{4-[4-(2-pyridin-2-yl-5,6-dihydro-4H-pyrrolo[1,2-b]pyrazol-3-yl)-quinolin-7-yl]-phenyl}-methanone] | ≤ 0.1
16 | CSC[C@@H](NC(=O)c1ccc(-c2ccc3c(-c4c(-c5ccccn5)nn5c4CCC5)ccnc3c2)cc1)C(=O)OC(C)(C)C [Example 134, 3-Methylsulfanyl-2(S)-{4-[4-(2-pyridin-2-yl-5,6-dihydro-4H-pyrrolo[1,2-b]pyrazol-3-yl)-quinolin-7-yl]-benzoylamino}-propionic Acid tert-Butyl Ester] | ≤ 1
17 | CC(C)(C)OC(=O)CC[C@H](NC(=O)c1ccc(-c2ccc3c(-c4c(-c5ccccn5)nn5c4CCC5)ccnc3c2)cc1)C(=O)OC(C)(C)C [Example 135, 2(S)-{4-[4-(2-Pyridin-2-yl-5,6-dihydro-4H-pyrrolo[1,2-b]pyrazol-3-yl)-quinolin-7-yl]-benzoylamino}-pentanedioic Acid Di-tert-Butyl Ester] | ≤ 1
18 | CN(C)C(=O)c1ccc(-c2ccc3c(-c4c(-c5ccccn5)nn5c4CCC5)ccnc3c2)cc1 [Example 136, N,N-Dimethyl-4-[4-(2-pyridin-2-yl-5,6-dihydro-4H-pyrrolo[1,2-b]pyrazol-3-yl)-quinolin-7-yl]-benzamide] | ≤ 0.1
19 | CC(C)(C)OC(=O)CCNC(=O)c1ccc(-c2ccc3c(-c4c(-c5ccccn5)nn5c4CCC5)ccnc3c2)cc1 [Example 137, 3-{4-[4-(2-Pyridin-2-yl-5,6-dihydro-4H-pyrrolo[1,2-b]pyrazol-3-yl)-quinolin-7-yl]-benzoylamino}-propionic Acid tert-Butyl Ester] | ≤ 0.1
20 | CNC(=O)c1ccc(-c2ccc3c(-c4c(-c5ccccn5)nn5c4CCC5)ccnc3c2)cc1 [Example 138, N-Methyl-4-[4-(2-pyridin-2-yl-5,6-dihydro-4H-pyrrolo[1,2-b]pyrazol-3-yl)-quinolin-7-yl]-benzamide] | ≤ 0.1
21 | CS(=O)(=O)CCNC(=O)c1ccc(-c2ccc3c(-c4c(-c5ccccn5)nn5c4CCC5)ccnc3c2)cc1 [Example 139, N-(2-Methanesulfonyl-ethyl)-4-[4-(2-pyridin-2-yl-5,6-dihydro-4H-pyrrolo[1,2-b]pyrazol-3-yl)-quinolin-7-yl]-benzamide] | ≤ 0.1
22 | CN(C)/C=N/C(=O)c1ccc(-c2ccc3c(-c4c(-c5ccccn5)nn5c4CCC5)ccnc3c2)cc1 [Example 140, N-Dimethylaminomethylene-4-[4-(2-pyridin-2-yl-5,6-dihydro-4H-pyrrolo[1,2-b]pyrazol-3-yl)-quinolin-7-yl]-benzamide] | ≤ 0.1
23 | NC(=O)c1ccc(-c2ccc3c(-c4c(-c5ccccn5)nn5c4CCC5)ccnc3c2)cc1 [Example 141, 4-[4-(2-Pyridin-2-yl-5,6-dihydro-4H-pyrrolo[1,2-b]pyrazol-3-yl)-quinolin-7-yl]-benzamide] | ≤ 0.1
24 | NCCCC[C@H](NC(=O)c1ccc(-c2ccc3c(-c4c(-c5ccccn5)nn5c4CCC5)ccnc3c2)cc1)C(=O)O [Example 143, 6-Amino-2(S)-{4-[4-(2-pyridin-2-yl-5,6-dihydro-4H-pyrrolo[1,2-b]pyrazol-3-yl)-quinolin-7-yl]-benzoylamino}-hexanoic acid, Ditrifluoroacetic Acid Salt] | ≤ 0.1
25 | CSC[C@@H](NC(=O)c1ccc(-c2ccc3c(-c4c(-c5ccccn5)nn5c4CCC5)ccnc3c2)cc1)C(=O)O [Example 145, 3-Methylsulfanyl-2(S)-{4-[4-(2-pyridin-2-yl-5,6-dihydro-4H-pyrrolo[1,2-b]pyrazol-3-yl)-quinolin-7-yl]-benzoylamino}-propionic Acid Trifluoroacetic Acid Salt] | ≤ 0.1
26 | O=C(O)CC[C@H](NC(=O)c1ccc(-c2ccc3c(-c4c(-c5ccccn5)nn5c4CCC5)ccnc3c2)cc1)C(=O)O [Example 146, 2(S)-{4-[4-(2-Pyridin-2-yl-5,6-dihydro-4H-pyrrolo[1,2-b]pyrazol-3-yl)-quinolin-7-yl]-benzoylamino}-pentanedioic Acid Trifluoroacetic Acid Salt] | ≤ 0.1
27 | O=C(O)CCNC(=O)c1ccc(-c2ccc3c(-c4c(-c5ccccn5)nn5c4CCC5)ccnc3c2)cc1 [Example 147, 3-{4-[4-(2-Pyridin-2-yl-5,6-dihydro-4H-pyrrolo[1,2-b]pyrazol-3-yl)-quinolin-7-yl]-benzoylamino}-propionic Acid Trifluoroacetic Acid Salt] | ≤ 0.1
